The test deals with L1210 leukemia ip in BDF1 mice, survival T/C. Nature of the test: NCI In Vivo Anticancer Drug Screen. Data for tumor model L1210 Leukemia (intraperitoneal) in B6D2F1 (BDF1) mice. To be noted: endpoint: mean survival time, higher = longer survival. The method in brief: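 Mice bearing the transplanted tumor received compound or vehicle. Survival of the treated group was divided by that of the vehicle-treated control group to give the ratio.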

[1] abbreviates: dose: 100.0 mg/kg/injection, schedule: Q04DX003 (ip), vehicle: saline.
Setting [2] is: dose: 200.0 mg/kg/injection, schedule: Q04DX003 (ip), vehicle: saline.

Where “and” joins values, the source holds several entries; their conditions need not be identical. Equal entries are not always repeated. Inconclusive results and toxic doses are left out.

`CCCCN(C)N=Nc1c(C(N)=O)n[nH]c1C`: the T/C reads like this: (dose: 1.0 mg/kg/injection, schedule: Q03HX008 (ip), vehicle: Klucel (hydroxypropylcellulose) (HPC)) 93 % of control; (dose: 2.0 mg/kg/injection, schedule: Q03HX008 (ip), vehicle: Klucel (hydroxypropylcellulose) (HPC)) 99 % of control; (dose: 4.0 mg/kg/injection, schedule: Q03HX008 (ip), vehicle: Klucel (hydroxypropylcellulose) (HPC)) 100 % of control; (dose: 4.0 mg/kg/injection, schedule: Q03HX016 (ip), vehicle: Klucel (hydroxypropylcellulose) (HPC)) 99 % of control; (dose: 4.0 mg/kg/injection, schedule: Q03HX024 (ip), vehicle: Klucel (hydroxypropylcellulose) (HPC)) 107 % of control; (dose: 8.0 mg/kg/injection, schedule: Q01DX009 (ip), vehicle: Klucel (hydroxypropylcellulose) (HPC)) 102 % of control. The T/C by setting is: (dose: 8.0 mg/kg/injection, schedule: Q03HX008 (ip), vehicle: Klucel (hydroxypropylcellulose) (HPC)) 102 % of control; (dose: 8.0 mg/kg/injection, schedule: Q03HX016 (ip), vehicle: Klucel (hydroxypropylcellulose) (HPC)) 100 % of control; (dose: 8.0 mg/kg/injection, schedule: Q03HX024 (ip), vehicle: Klucel (hydroxypropylcellulose) (HPC)) 108 % of control; (dose: 8.8 mg/kg/injection, schedule: Q01DX007 (ip), vehicle: Klucel (hydroxypropylcellulose) (HPC)) 114 % of control; (dose: 10.0 mg/kg/injection, schedule: Q01DX009 (ip), vehicle: Klucel (hydroxypropylcellulose) (HPC)) 109 % of control; (dose: 13.2 mg/kg/injection, schedule: Q01DX007 (ip), vehicle: Klucel (hydroxypropylcellulose) (HPC)) 120 % of control. The T/C is, setting by setting: (dose: 15.0 mg/kg/injection, schedule: Q01DX009 (ip), vehicle: Klucel (hydroxypropylcellulose) (HPC)) 111 % of control; (dose: 16.0 mg/kg/injection, schedule: Q01DX009 (ip), vehicle: Klucel (hydroxypropylcellulose) (HPC)) 114 % of control; (dose: 16.0 mg/kg/injection, schedule: Q03HX016 (ip), vehicle: Klucel (hydroxypropylcellulose) (HPC)) 119 % of control; (dose: 32.0 mg/kg/injection, schedule: Q01DX001 (ip), vehicle: Klucel (hydroxypropylcellulose) (HPC)) 101 % of control; (dose: 32.0 mg/kg/injection, schedule: Q03HX024 (ip), vehicle: Klucel (hydroxypropylcellulose) (HPC)) 105 % of control; (dose: 32.0 mg/kg/injection, schedule: Q04DX003 (ip), vehicle: Klucel (hydroxypropylcellulose) (HPC)) 105 % of control. Besides, the T/C was 105 % of control (dose: 32.0 mg/kg/injection, schedule: Q08DX002 (ip), vehicle: Klucel (hydroxypropylcellulose) (HPC)); 150 % of control (dose: 45.0 mg/kg/injection, schedule: Q01DX009 (ip), vehicle: Klucel (hydroxypropylcellulose) (HPC)); 105 % of control (dose: 64.0 mg/kg/injection, schedule: Q01DX001 (ip), vehicle: Klucel (hydroxypropylcellulose) (HPC)); 119 % of control (dose: 64.0 mg/kg/injection, schedule: Q04DX003 (ip), vehicle: Klucel (hydroxypropylcellulose) (HPC)); 115 % of control (dose: 64.0 mg/kg/injection, schedule: Q08DX002 (ip), vehicle: Klucel (hydroxypropylcellulose) (HPC)); 113 % of control (dose: 67.5 mg/kg/injection, schedule: Q01DX009 (ip), vehicle: Klucel (hydroxypropylcellulose) (HPC)). Also, the T/C reads like this: (dose: 128.0 mg/kg/injection, schedule: Q01DX001 (ip), vehicle: Klucel (hydroxypropylcellulose) (HPC)) 121 % of control; (dose: 128.0 mg/kg/injection, schedule: Q08DX002 (ip), vehicle: Klucel (hydroxypropylcellulose) (HPC)) 124 % of control; (dose: 177.0 mg/kg/injection, schedule: Q01DX001 (ip), vehicle: carboxymethylcellulose (CMC)) 124 % of control.
For the compound `COC(=O)CSc1nn2nnnc2c2ccccc12`, the T/C is 95 % of control (dose: 50.0 mg/kg/injection, schedule: Q04DX003 (ip), vehicle: saline); 103 % of control under setting [1]; 98 % of control under setting [2].
For the compound `COc1cc(NCC(O)C(O)C(O)CO)c([N+](=O)[O-])cc1OC` (stereo not drawn), the T/C (dose: 100.0 mg/kg/injection, schedule: Q01DX001 (ip), vehicle: saline) is 92 % of control; the T/C (dose: 200.0 mg/kg/injection, schedule: Q01DX001 (ip), vehicle: saline) was 99 % of control; the T/C (dose: 400.0 mg/kg/injection, schedule: Q01DX001 (ip), vehicle: saline) is 100 % of control.
Regarding `COc1ccc(/C=N/NC(=S)Nc2ccccc2)cc1`, the T/C was 103 % of control (dose: 100.0 mg/kg/injection, schedule: Q01DX009 (ip), vehicle: Klucel (hydroxypropylcellulose) (HPC)); 95 % of control (dose: 200.0 mg/kg/injection, schedule: Q01DX009 (ip), vehicle: Klucel (hydroxypropylcellulose) (HPC)); 108 % of control (dose: 400.0 mg/kg/injection, schedule: Q01DX009 (ip), vehicle: Klucel (hydroxypropylcellulose) (HPC)).
Consider `NCC(=O)NC(CO)C(=O)O` (stereo not drawn), for which the T/C runs as follows: (dose: 100.0 mg/kg/injection, schedule: Q01DX009 (ip), vehicle: saline) 106 % of control; under setting [1], 110 % of control; (dose: 200.0 mg/kg/injection, schedule: Q01DX009 (ip), vehicle: saline) 101 % of control; under setting [2], 103 % of control; (dose: 400.0 mg/kg/injection, schedule: Q01DX009 (ip), vehicle: saline) 95 % of control; (dose: 400.0 mg/kg/injection, schedule: Q04DX003 (ip), vehicle: saline) 100 % of control.
As for `CC(C)CCNCC(C)(C)OC(=O)c1ccc(N)cc1`, the T/C reads like this: (dose: 10.0 mg/kg/injection, schedule: Q01DX001 (ip), vehicle: saline) 112 % of control; (dose: 20.0 mg/kg/injection, schedule: Q01DX001 (ip), vehicle: saline) 100 % of control; (dose: 40.0 mg/kg/injection, schedule: Q01DX001 (ip), vehicle: saline) 102 % of control.
`COC(=O)C(Nc1ccc([N+](=O)[O-])cc1[N+](=O)[O-])C(C)O` (stereo not drawn): the T/C is 104 % of control (dose: 100.0 mg/kg/injection, schedule: Q01DX001 (ip), vehicle: other); 101 % of control (dose: 200.0 mg/kg/injection, schedule: Q01DX001 (ip), vehicle: other); 111 % of control (dose: 400.0 mg/kg/injection, schedule: Q01DX001 (ip), vehicle: other).
For the compound `C/C(CCC(=O)O)=N/N=C(N)N`, the T/C (dose: 15.0 mg/kg/injection, schedule: Q01DX Z (ip), vehicle: carboxymethylcellulose (CMC)) is 100 % of control; the T/C (dose: 30.0 mg/kg/injection, schedule: Q01DX Z (ip), vehicle: carboxymethylcellulose (CMC)) is 106 % of control; the T/C (dose: 60.0 mg/kg/injection, schedule: Q01DX Z (ip), vehicle: carboxymethylcellulose (CMC)) is 106 % of control; the T/C (dose: 120.0 mg/kg/injection, schedule: Q01DX Z (ip), vehicle: carboxymethylcellulose (CMC)) is 95 % of control and 102 % of control; the T/C (dose: 240.0 mg/kg/injection, schedule: Q01DX Z (ip), vehicle: carboxymethylcellulose (CMC)) is 108 % of control; the T/C (dose: 480.0 mg/kg/injection, schedule: Q01DX Z (ip), vehicle: carboxymethylcellulose (CMC)) is 104 % of control.
Regarding `CN(C)CC1CCC(CN(C)C)C1=O` (stereo not drawn), the T/C is 106 % of control (dose: 9.38 mg/kg/injection, schedule: Q01DX001 (ip), vehicle: other); 104 % of control (dose: 9.38 mg/kg/injection, schedule: Q01DX001 (ip), vehicle: saline); 101 % of control (dose: 18.75 mg/kg/injection, schedule: Q01DX001 (ip), vehicle: other); 103 % of control (dose: 18.75 mg/kg/injection, schedule: Q01DX001 (ip), vehicle: saline); 115 % of control (dose: 37.5 mg/kg/injection, schedule: Q01DX001 (ip), vehicle: other).
For the compound `O[O][Ge]([c]1ccccc1)([c]1ccccc1)[c]1ccccc1`, the T/C was 88 % of control (dose: 100.0 mg/kg/injection, schedule: Q04DX003 (ip), vehicle: Klucel (hydroxypropylcellulose) (HPC)); 91 % of control (dose: 200.0 mg/kg/injection, schedule: Q04DX003 (ip), vehicle: Klucel (hydroxypropylcellulose) (HPC)); 88 % of control (dose: 400.0 mg/kg/injection, schedule: Q04DX003 (ip), vehicle: Klucel (hydroxypropylcellulose) (HPC)).
Consider `CC(=O)Nc1cccc2c(C)ccnc12`, for which the T/C is, setting by setting: (dose: 12.5 mg/kg/injection, schedule: Q01DX009 (ip), vehicle: Klucel (hydroxypropylcellulose) (HPC)) 99 % of control; (dose: 12.5 mg/kg/injection, schedule: Q04DX003 (ip), vehicle: Klucel (hydroxypropylcellulose) (HPC)) 94 % of control; (dose: 25.0 mg/kg/injection, schedule: Q01DX009 (ip), vehicle: Klucel (hydroxypropylcellulose) (HPC)) 97 % of control; (dose: 25.0 mg/kg/injection, schedule: Q04DX003 (ip), vehicle: Klucel (hydroxypropylcellulose) (HPC)) 98 % of control; (dose: 50.0 mg/kg/injection, schedule: Q01DX009 (ip), vehicle: Klucel (hydroxypropylcellulose) (HPC)) 87 % of control; (dose: 50.0 mg/kg/injection, schedule: Q04DX003 (ip), vehicle: Klucel (hydroxypropylcellulose) (HPC)) 95 % of control.

(Values after PubChem BioAssay AID248 (DTP/NCI, 2004).)
